In the oligonucleotide strings, read from the 5' end, every base follows the letter of its sugar. An asterisk marks phosphorothioate; unmarked linkages are phosphodiester. Other units and linkages are bracketed, terminal groups are in braces. A string of capitals states the bases alone. {NAG37} = tridentate N-acetyl-galactosamine targeting ligand, structure (NAG37)s; [invAb] = inverted abasic unit; m = 2'-O-methyl; f = 2'-fluoro
Columns and labels:
[1] = test system: ANGPTL3 gene; assay: Example 6: serum HDL in mice; assay type: in vivo, C57bl/6 mice
Procedure: (§1) To assess the in vivo activity of additional ANGPTL3 RNAi agents that are designed to target position 304 on the ANGPTL3 gene, six- to eight-week-old female C57bl/6 mice were used. Pre-dose serum samples were taken at day −1 after a four hour fast. At day 1, each mouse was given a single subcutaneous administration of 200 μl containing 0.5 mg/kg (mpk) of an ANGPTL3 RNAi agent in D5W (dextrose in 5% water), or control (D5W) with no RNAi agent, according to the dosing groups recited in Table 25.
(§2) Each of the RNAi agents included a modified sequence and an N-acetyl-galactosamine-containing targeting ligand conjugated to the 5′ terminal end of the sense strand. (See Tables 3, 4, and 5 for modified sequences and targeting ligand structures). The injections were performed between the skin and muscle (i.e. subcutaneous injections) into the loose skin over the neck and shoulder area. Three (3) mice in each group were tested (n=3). Serum was collected on days 8, 15, 22, 30, and on day 43 for certain groups (i.e., Groups 1, 2, 5, and 10 only). Mice were fasted for four hours prior to each collection. ANGPTL3 protein levels in serum were measured by ELISA assay (R&D Systems), according to the manufacturer's recommendations. Triglycerides, total cholesterol, high-density lipoprotein (HDL), and low-density lipoprotein (LDL) in serum were measured on a Cobas® Integra 400 (Roche Diagnostics), according to the manufacturer's recommendations.
(§3) The ANGPTL3 protein levels, triglyceride levels, total cholesterol levels, HDL levels, and LDL levels for each animal were normalized. For normalization, the level of ANGPTL3 protein, triglyceride, HDL, and total cholesterol, respectively, for each animal at a time point, was divided by the pre-treatment level of expression in that animal (in this case at day −1) to determine the ratio of expression “normalized to pre-treatment.” Expression at a specific time point was then normalized to the D5W control group by dividing the “normalized to pre-treatment” ratio for an individual animal by the mean “normalized to pretreatment” ratio of all mice in the D5W control group.

[2] = test system: ANGPTL3 gene; assay: Example 10: serum total cholesterol in mice; assay type: in vivo; conditions: 0.5 mg/kg single SC injection day 1, female C57bl/6 mice, n=3, ratio to D5W control
Procedure: as §1, with “further” for “additional”, “47.” for “25.”
Each of the RNAi agents included a modified sequence and an N-acetyl-galactosamine-containing targeting ligand conjugated to the 5′ terminal end of the sense strand. (See Tables 3, 4, and 5 for modified sequences and targeting ligand structures). As noted above, each of the ANGPTL3 RNAi agents dosed in this study included nucleotide sequences designed to target the ANGPTL3 gene at position 304. The injections were performed between the skin and muscle (i.e. subcutaneous injections) into the loose skin over the neck and shoulder area. Three (3) mice in each group were tested (n=3). Serum was collected on days 8, 15, 22, 29, and for some groups on day 36 (i.e., Groups 1, 2, and 9-13 only). Mice were fasted for four hours prior to each collection. ANGPTL3 protein levels in serum were measured by ELISA assay (R&D Systems), according to the manufacturer's recommendations. Triglycerides, total cholesterol, high-density lipoprotein (HDL), and low-density lipoprotein (LDL) in serum were measured on a Cobas® Integra 400 (Roche Diagnostics), according to the manufacturer's recommendations.
as §3

[3] = test system: ANGPTL3 mRNA; assay: Example 11: liver ANGPTL3 mRNA by RT-qPCR in mice; assay type: in vivo, C57bl/6 mice
Procedure: as §1, with “dose response” for “in vivo activity”, “of” for “of additional”, “agent AD05488,” for “agents that are designed to target position 304 on the ANGPTL3 gene,”, “the respective” for “0.5”, “dose” for “(mpk)”, “53:” for “25.”
Additionally, ANGPTL3 mRNA levels were also assessed. All of the mice from each respective group were sacrificed on day 29 after serum collection, livers were harvested, and approximately 100 mg liver samples were collected and snap-frozen in liquid nitrogen for RNA isolation.

[4] = test system: ANGPTL3 gene; assay: Example 6: serum triglycerides in mice; assay type: in vivo, C57bl/6 mice
Procedure: as §1, §2, §3

[5] = Day 8, 0.5 mg/kg single SC injection on day 1, n=3
[6] = Day 15, 0.5 mg/kg single SC injection on day 1, n=3
[7] = Day 22, 0.5 mg/kg single SC injection on day 1, n=3
[8] = Day 30, 0.5 mg/kg single SC injection on day 1, n=3
[9] = Day 43, 0.5 mg/kg single SC injection on day 1, n=3

Substance: AD05488: RNAi agent duplex: antisense AM07235-AS, sense AM07234-SS (antisense mU*fA*mC*fUmGfAmUfCmAfAmAfUmAfUmGfUmUfGmAfG*mC; sense {NAG37}*[invAb]*mGmCmUmCmAmAmCmAfUfAfUmUmUmGmAmUmCmAmGmUmA*[invAb])
- Avg HDL, normalized to pre-treatment and control [1, 5]: 0.783
- Avg HDL, normalized to pre-treatment and control [1, 6]: 0.763
- Avg HDL, normalized to pre-treatment and control [1, 7]: 0.793
- Avg HDL, normalized to pre-treatment and control [1, 8]: 0.956
- Avg HDL, normalized to pre-treatment and control [1, 9]: 1.088
- Average Total Cholesterol Normalized to Pre-Treatment and Control ([2]; Day 8): 0.659
- Average Total Cholesterol Normalized to Pre-Treatment and Control ([2]; Day 15): 0.808
- Average Total Cholesterol Normalized to Pre-Treatment and Control ([2]; Day 22): 0.763
- Average Total Cholesterol Normalized to Pre-Treatment and Control ([2]; Day 29): 0.743
- Average Total Cholesterol Normalized to Pre-Treatment and Control ([2]; Day 36): 0.824
- Avg Relative ANGPTL3 mRNA, Normalized to Control ([3]; 0.05 mg/kg single sc day 1, Day 29): 0.798
- Avg Relative ANGPTL3 mRNA, Normalized to Control ([3]; 0.1 mg/kg single sc day 1, Day 29): 0.563
- Avg Relative ANGPTL3 mRNA, Normalized to Control ([3]; 0.5 mg/kg single sc day 1, Day 29): 0.277
- Avg Relative ANGPTL3 mRNA, Normalized to Control ([3]; 1.0 mg/kg single sc day 1, Day 29): 0.123
- Avg Relative ANGPTL3 mRNA, Normalized to Control ([3]; 2.5 mg/kg single sc day 1, Day 29): 0.036
- Avg Relative ANGPTL3 mRNA, Normalized to Control ([3]; 5.0 mg/kg single sc day 1, Day 29): 0.038
- reduction in ANGPTL3 mRNA ([3]; day 29, single subcutaneous dose, C57bl/6 mice): reduction
- Avg TG, normalized to pre-treatment and control [4, 5]: 0.568
- Avg TG, normalized to pre-treatment and control [4, 6]: 0.637
- Avg TG, normalized to pre-treatment and control [4, 7]: 0.484
- Avg TG, normalized to pre-treatment and control [4, 8]: 0.652
- Avg TG, normalized to pre-treatment and control [4, 9]: 0.689

Reference: patent publication US12729377B2, “RNAi agents and compositions for inhibiting expression of angiopoietin-like 3 (ANGPTL3), and methods of use” (Arrowhead Pharmaceuticals, Inc., priority 2017, dated 2026)
